Where two headings read alike, the source gives them in different places. Marks after values point to notes of the source that are not given here.
How the values were obtained:
[1] = bulk form; cited from earlier work
[2] = system: C. albicans ATCC MYA-2310(S); settings: Table 1; strain E; control azoles; previously reported (refs 5, 16); cited from earlier work
C. albicans ATCC 64124 [3] = test: MIC determination, strain B; type: cell-based, Candida albicans; settings: Candida albicans, ATCC64124
Description: (§1) The antifungal activity of our new azole compounds 1-9 and 24-41 was first evaluated against a panel of seven Candida albicans strains (A-G), three non-albicans Candida strains […], and three Aspergillus strains (K-M) in a concentration range of 0.03-31.2 μg/mL (Table 1). […] For all of our azole derivatives we report their MIC-0 values against C. albicans ATCC 10231 (strain A) and all Aspergillus strains (K-M), which correspond to complete growth inhibition of these fungi. […] The commercially available antifungals AmB, FLC, ITC, POS, and VOR were used as reference drugs for comparison. The MIC values presented for these five control drugs were either tested herein or correspond to our previously published data^5, 16 as indicated in Table 1.
(§2) Antifungal activity in the absence or presence of serum. The antifungal activity of the newly prepared alkylated piperazine/morpholine-azole hybrids 16-28, of intermediate 14 that we used to verify that only final compounds exert antifungal activity, as well as that of alkylated piperazine/morpholine derivatives 1-10 were first evaluated against a panel of seven C. albicans (ATCC 10231 (A), ATCC 64124(R) (B), ATCC MYA-2876(S) (C), ATCC 90819(R) (D), ATCC MYA-2310(S) (E), ATCC MYA-1237(R) (F), and ATCC MYA-1003(R) (G)), three non-albicans Candida (C. glabrata ATCC 2001 (H), C. krusei ATCC 6258 (I), and C. parapsilosis ATCC 22019 (J)), and three Aspergillus (A. flavus ATCC MYA-3631 (K), A. nidulans ATCC 38163 (L), and A. terreus ATCC MYA-3633 (M)) strains using a concentration range of 0.03-31.3 μg/mL (Table 2).
(§3) Commercially available antifungal agents such as AmB, CAS, FLC, and VOR were used as positive controls for comparison. […] It is important to note that all comparisons to follow will be done by using the MIC values reported in μg/mL as the data were collected that way. However, we also present in parentheses in Table 2 the corresponding values in micromolar.
(§4) We used the commercially available antifungal agents such as AmB, caspofungin (CAS), FLC, and VOR as positive controls for comparison. For derivatives 5-16 as well as the reference drugs AmB and CAS, we reported MIC-0 values, which correspond to no visible growth. […] In this manuscript, we performed all activity comparisons by using the MIC values reported in μg/mL (Note: the corresponding MIC values are also provided in μM into parentheses in Tables 1, 2, S1, and S2).

Candida krusei ATCC 6258 [4] = settings: Table 1; strain I; control azoles; previously reported (refs 5, 16); cited from earlier work
[5] = system: Candida glabrata ATCC 2001; test: MIC determination, strain H; type: cell-based; settings: Nakaseomyces glabratus, ATCC2001
Description: as §1, §2, §3, §4

[6] = system: Candida glabrata ATCC 2001; settings: Table 1; strain H; control azoles; previously reported (refs 5, 16); cited from earlier work
[7] = system: Candida parapsilosis ATCC 22019; test: MIC determination, strain J; type: cell-based; settings: Lodderomyces parapsilosis, ATCC22019
Description: as §1, §2, §3, §4

[8] = system: ergosterol biosynthetic pathway (sterol 14α-demethylase) in C. albicans ATCC 10231 (strain A); test: Sterol composition by GC-MS, strain A; type: cell-based, Candida albicans
Text: (§5) FIG. 7A-FIG. 7H includes FIG. 7A. A simplified ergosterol biosynthetic pathway and products resulting from inhibition of ERG11. FIG. 7B-G. include GC-MS chromatograms of the sterols extracted from untreated and antifungals treated C. albicans strains. […] The peaks are for lanosterol (1), ergosterol (2), eburicol (3), 14-alpha-methyl ergosta 8,24(28)-dien-3-beta,6-alpha-diol (4), and unknown sterols (5 and 6). FIG. 7H is a table summarizing the percentage of each sterol from panels B-G.
FIG. 13A. A simplified ergosterol biosynthetic pathway and products resulting from inhibition of ERG11. FIG. 13B-FIG. 13F. GC-MS chromatograms of the sterols extracted from untreated and antifungal-treated C. albicans ATCC 10231 (strain A). […] The peaks in these chromatograms are for lanosterol (1), ergosterol (2), eburicol (3), 14α-methyl ergosta-8,24(28)-dien-3β,6α-diol (4), and three unknown sterols (5-7). FIG. 13G includes a table summarizing the percentage of each sterol from panels B-F.
(§6) No drug controls were also performed (FIGS. 7D and G).
Determination of sterol composition in c. albicans in the presence and absence of drugs. […] By using gas chromatography-mass spectrometry (GC-MS), we investigated the potential of the synthetic compounds to exert their antifungal activity by inhibiting the sterol 14α-demethylase enzyme of the ergosterol biosynthetic pathway (FIG. 13). […] A no drug control was also performed (FIG. 13A).
Since out of our compounds displaying antifungal activity only compound 8 caused membrane disruption of C. albicans ATCC 10231 (strain A) in the membrane permeabilization assay (section 2.6), we decided to explore by using gas chromatography-mass spectrometry (GC-MS) the effect of compounds 8 and 9 on sterol composition during ergosterol biosynthesis (the mechanism of action of other conventional azoles). […] We also used VOR at 0.12 μg/mL and no drug control for comparison.

[9] = system: C. albicans ATCC MYA-2876(S); test: MIC determination, strain C; type: cell-based, Candida albicans; settings: Candida albicans
Description: as §1, §2, §3, §4

[10] = system: ergosterol biosynthetic pathway (sterol 14α-demethylase) in C. albicans ATCC 64124 (strain B); test: Sterol composition by GC-MS, strain B; type: cell-based, Candida albicans; settings: Ex.1 series, 1.95 μg/mL
Text: as §5, §6

[11] = system: Candida parapsilosis ATCC 22019; settings: Table 1; strain J; control azoles; previously reported (refs 5, 16); cited from earlier work
Candida krusei ATCC 6258 [12] = test: MIC determination, strain I; type: cell-based; settings: Pichia kudriavzevii, ATCC6258
Description: as §1, §2, §3, §4

[13] = system: C. albicans ATCC MYA-2876(S); settings: Table 1; strain C; control azoles; previously reported (refs 5, 16); cited from earlier work
[14] = system: C. albicans ATCC 90819(R); test: MIC determination, strain D; type: cell-based, Candida albicans; settings: Candida albicans, ATCC90819
Description: as §1, §2, §3, §4

[15] = system: C. albicans ATCC MYA-2310(S); test: MIC determination, strain E; type: cell-based, Candida albicans; settings: Candida albicans
Description: as §1, §2, §3, §4

C. albicans ATCC 64124 [16] = settings: Table 1; strain B; control azoles; previously reported (refs 5, 16); cited from earlier work
[17] = system: Aspergillus flavus ATCC MYA-3631; settings: Table 1; strain K; control azoles; previously reported (refs 5, 16); cited from earlier work
[18] = system: Candida albicans ATCC 10231; settings: Table 1; strain A; control azoles FLC, ITC, POS, VOR; previously reported (refs 5, 16); cited from earlier work
[19] = system: C. albicans ATCC MYA-1237(R); settings: Table 1; strain F; control azoles; previously reported (refs 5, 16); cited from earlier work
[20] = system: C. albicans ATCC 90819(R); settings: Table 1; strain D; control azoles; previously reported (refs 5, 16); cited from earlier work
[21] = system: C. albicans ATCC MYA-1003(R); settings: Table 1; strain G; control azoles; previously reported (refs 5, 16); cited from earlier work
[22] = system: Aspergillus terreus ATCC MYA-3633; settings: Table 1; strain M; control azoles; previously reported (refs 5, 16); cited from earlier work
[23] = system: Aspergillus nidulans ATCC 38163; settings: Table 1; strain L; control azoles; previously reported (refs 5, 16); cited from earlier work
[24] = read-out: MIC (MIC-2), in parentheses

OC(Cn1cncn1)(Cn1cncn1)c1ccc(F)cc1F [FLC, fluconazole]
solubility in organic solvents such as DMSO [1]: highly soluble | solubility in water [1]: only slightly soluble | MIC (MIC-2) [2]: >125^b μg/mL | MIC (C. albicans ATCC 64124 [3]; read-out: MIC (MIC-2)): > 125 µg/mL | MIC (C. albicans ATCC 64124 [3]; [24]): > 408 µM | MIC (MIC-2) (Candida krusei ATCC 6258 [4]): >31.2^c μg/mL | MIC ([5]; read-out: MIC (MIC-2)): > 31.3 µg/mL | MIC [5, 24]: > 102 µM | MIC (MIC-2) [6]: >31.2^c μg/mL | MIC ([7]; read-out: MIC (MIC-2)): 1.95 µg/mL | MIC [7, 24]: 6.4 µM | ergosterol, percentage of sterols ([8]; Ex.1 series, 0.125 μg/mL): ~93% | ergosterol (2), percentage of sterols ([8]; Ex.2 series, FLC 1.95, VOR 0.12, 20 0.48, 26 0.975 μg/mL): 95.90% | MIC ([9]; read-out: MIC (MIC-2)): 15.6 µg/mL | MIC [9, 24]: 50.9 µM | eburicol, percentage of sterols [10]: ~12% | ergosterol, percentage of sterols [10]: ~48% | lanosterol, percentage of sterols [10]: ~30% | MIC (MIC-2) [11]: 1.95^c μg/mL | MIC (Candida krusei ATCC 6258 [12]; read-out: MIC (MIC-2)): > 31.3 µg/mL | MIC (Candida krusei ATCC 6258 [12]; [24]): > 102 µM | MIC (MIC-2) [13]: 15.6^b μg/mL | MIC ([14]; read-out: MIC (MIC-2)): > 125 µg/mL | MIC [14, 24]: > 408 µM | MIC ([15]; read-out: MIC (MIC-2)): > 125 µg/mL | MIC [15, 24]: > 408 µM

CCC(C)n1ncn(-c2ccc(N3CCN(c4ccc(OCC5COC(Cn6cncn6)(c6ccc(Cl)cc6Cl)O5)cc4)CC3)cc2)c1=O (stereo not drawn) [ITC, itraconazole]
MIC (MIC-2) (C. albicans ATCC 64124 [16]): >62.5^b μg/mL | MIC (MIC-2) [2]: 31.2^b μg/mL | MIC (MIC-2) (Candida krusei ATCC 6258 [4]): 0.48^c μg/mL | MIC (MIC-2) [17]: 0.48^c μg/mL | MIC (MIC-2) [6]: 7.8^c μg/mL | MIC (MIC-2) [18]: 0.5^b μg/mL | MIC (MIC-2) [19]: 31.2^b μg/mL | MIC (MIC-2) [11]: 0.12^c μg/mL | MIC (MIC-2) [20]: 31.2^b μg/mL | MIC (MIC-2) [21]: 31.2^b μg/mL | MIC (MIC-2) [22]: 0.975^c μg/mL | MIC (MIC-2) [13]: 7.8^b μg/mL | MIC (MIC-2) [23]: 0.195^b μg/mL

CC[C@@H]([C@H](C)O)n1ncn(-c2ccc(N3CCN(c4ccc(OC[C@@H]5CO[C@@](Cn6cncn6)(c6ccc(F)cc6F)C5)cc4)CC3)cc2)c1=O [POS, posaconazole]
MIC (MIC-2) (C. albicans ATCC 64124 [16]): >62.5^b μg/mL | MIC (MIC-2) [2]: 31.2^b μg/mL | MIC (MIC-2) (Candida krusei ATCC 6258 [4]): 0.06^c μg/mL | MIC (MIC-2) [17]: 0.24^c μg/mL | MIC (MIC-2) [6]: 0.12^c μg/mL | MIC (MIC-2) [18]: 0.5^b μg/mL | MIC (MIC-2) [19]: 15.6^b μg/mL | MIC (MIC-2) [11]: <0.03^c μg/mL | MIC (MIC-2) [21]: 15.6^b μg/mL | MIC (MIC-2) [22]: 0.48^c μg/mL | MIC (MIC-2) [13]: 7.8^b μg/mL | MIC (MIC-2) [23]: 0.195^b μg/mL

— patent publication US12103916B2, “Antifungal compounds” (University of Kentucky Research Foundation, priority 2016, dated 2024)
